Laboratory results reported in patent publication US12129246B1, “Hydroquinazoline derivatives for the treatment of a disease or disorder” (Novartis AG, priority 2023, dated 2024).
Read-outs that look alike come from different tables or passages of the source.

Key:
[1] = target: monkey NPR1 (Macaca fascicularis, UniProt A0A7N9DBT9); assay: Cellular cGMP production assay, monkey NPR1 expressing CHO-K1 cells (CisBio HTRF); type: cell-based; conditions: for Monkey NPR1 Amax (% of ANP): maximum cGMP production as percentage of the maximum cGMP produced with ANP
Outline: (§1)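 CHO-K1 cells expressing human or cynomolgus NPR1 treated with compound (12-point, 3-fold dilutions from 30 μM top) in PBS+0.1% BSA with 1 mM IBMX, 30 min at 37° C. After lysis, cGMP quantified by HTRF competition (cGMP-d2/anti-cGMP-cryptate, 1 h RT, 665 nm emission) against a calibrator standard curve.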

[2] = target: T1, human NPR1 (Homo sapiens, UniProt P16066); assay: Cellular cGMP production assay, human NPR1 expressing CHO-K1 cells (CisBio HTRF); type: cell-based; conditions: for AC50: cGMP production, 30 min at 37° C., 12-point dose-response from 30 μM; for Human NPR1 Amax (% of ANP): maximum cGMP production as percentage of the maximum cGMP produced with ANP
T1 construct: host or cells: CHO-K1
T1 sequence (P16066 33-1061): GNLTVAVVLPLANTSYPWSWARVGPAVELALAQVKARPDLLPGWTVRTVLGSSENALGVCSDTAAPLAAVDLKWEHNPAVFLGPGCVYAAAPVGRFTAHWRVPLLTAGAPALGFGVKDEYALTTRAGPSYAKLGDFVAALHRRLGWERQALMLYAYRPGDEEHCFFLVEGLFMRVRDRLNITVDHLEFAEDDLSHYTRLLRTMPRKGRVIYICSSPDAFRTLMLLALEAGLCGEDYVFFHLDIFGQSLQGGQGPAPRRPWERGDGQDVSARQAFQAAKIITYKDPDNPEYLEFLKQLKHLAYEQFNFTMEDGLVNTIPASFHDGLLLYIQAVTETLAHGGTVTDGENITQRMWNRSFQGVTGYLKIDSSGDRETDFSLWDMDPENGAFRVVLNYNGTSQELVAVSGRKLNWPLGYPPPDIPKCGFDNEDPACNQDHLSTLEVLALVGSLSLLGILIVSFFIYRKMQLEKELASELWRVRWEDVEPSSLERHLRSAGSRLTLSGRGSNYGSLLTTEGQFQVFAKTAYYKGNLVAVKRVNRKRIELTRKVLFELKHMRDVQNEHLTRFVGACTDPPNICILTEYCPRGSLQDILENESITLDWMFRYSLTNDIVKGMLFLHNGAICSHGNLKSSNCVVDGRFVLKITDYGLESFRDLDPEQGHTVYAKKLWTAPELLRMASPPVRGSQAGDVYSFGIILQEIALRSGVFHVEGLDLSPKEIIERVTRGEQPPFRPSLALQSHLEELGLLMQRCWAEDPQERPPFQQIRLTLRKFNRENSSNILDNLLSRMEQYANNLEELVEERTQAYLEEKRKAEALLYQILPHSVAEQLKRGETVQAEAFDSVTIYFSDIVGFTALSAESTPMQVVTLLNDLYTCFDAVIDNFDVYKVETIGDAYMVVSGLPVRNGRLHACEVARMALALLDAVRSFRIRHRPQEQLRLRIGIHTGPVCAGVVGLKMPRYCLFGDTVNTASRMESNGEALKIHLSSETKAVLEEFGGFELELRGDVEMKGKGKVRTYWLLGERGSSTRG
Outline: as §1

[3] = cGMP production, monkey NPR1 CHO-K1 cells, 30 min at 37° C., 12-point dose-response from 30 μM, read-out: Monkey NPR1 AC50

monkey NPR1, sequence (A0A7N9DBT9 entry or part of it): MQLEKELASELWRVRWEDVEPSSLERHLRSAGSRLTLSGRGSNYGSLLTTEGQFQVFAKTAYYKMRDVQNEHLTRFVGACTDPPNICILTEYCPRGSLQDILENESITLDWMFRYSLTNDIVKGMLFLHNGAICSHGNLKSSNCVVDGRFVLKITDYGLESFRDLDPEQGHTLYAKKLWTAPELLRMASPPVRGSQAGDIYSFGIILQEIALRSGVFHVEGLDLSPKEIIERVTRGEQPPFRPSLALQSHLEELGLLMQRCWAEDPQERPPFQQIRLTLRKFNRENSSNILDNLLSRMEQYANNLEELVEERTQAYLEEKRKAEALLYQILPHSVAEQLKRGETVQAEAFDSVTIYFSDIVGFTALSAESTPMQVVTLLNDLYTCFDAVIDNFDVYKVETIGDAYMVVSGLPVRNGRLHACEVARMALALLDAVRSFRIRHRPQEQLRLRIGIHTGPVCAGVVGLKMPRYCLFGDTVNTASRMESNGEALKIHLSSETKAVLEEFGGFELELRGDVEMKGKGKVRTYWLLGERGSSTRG

| Compound | AC50 [1, 3] | Monkey NPR1 Amax (% of ANP) ([1]; monkey NPR1 CHO-K1 cells) | AC50 [2] | Human NPR1 Amax (% of ANP) [2] | AC50 [1] |
| --- | --- | --- | --- | --- | --- |
| CC[C@H](N(C)c1nc2c(c(N[C@@H](CN3CCC[C@@H](CF)C3)c3cnn(C)c3)n1)C[C@@](C)(c1ccccc1)CC2)C12CC(C(=O)O)(C1)C2 [Compound 36, 3-((S)-1-(((S)-4-(((R)-2-((R)-3-(fluoromethyl)piperidin-1-yl)-1-(1-methyl-1H-pyrazol-4-yl)ethyl)amino)-6-methyl-6-phenyl-5,6,7,8-tetrahydroquinazolin-2-yl)(methyl)amino)propyl)bicyclo[1.1.1]pentane-1-carboxylic acid] | 133 nM | 101.251 % of ANP | 150 nM | 101.036 % of ANP | – |
| CC[C@@H](Nc1nc2c(c(N[C@@H](CN3CCCCC3)c3ccccc3)n1)C[C@@H](c1cccc(F)c1)CC2)[C@H]1CC[C@H](C(=O)O)CC1 [Compound 37, (1R,4r)-4-((R)-1-(((S)-6-(3-fluorophenyl)-4-(((R)-1-phenyl-2-(piperidin-1-yl)ethyl)amino)-5,6,7,8-tetrahydroquinazolin-2-yl)amino)propyl)cyclohexane-1-carboxylic acid] | 158 nM | 107.224 % of ANP | 150 nM | 105.989 % of ANP | – |
| CC[C@@H](Nc1nc2c(c(N[C@@H](CN3C4CC5CC(C4)CC3C5)c3cnn(CC)c3)n1)C[C@H](c1ccccc1)CC2)[C@H]1CC[C@H](C(=O)O)CC1 [Compound 38, (1R,4r)-4-((R)-1-(((R)-4-(((R)-2-((1R,3R,5R,7R)-2-azaadamantan-2-yl)-1-(1-ethyl-1H-pyrazol-4-yl)ethyl)amino)-6-phenyl-5,6,7,8-tetrahydroquinazolin-2-yl)amino)propyl)cyclohexane-1-carboxylic acid] | 83 nM | 101.007 % of ANP | 161 nM | 101.675 % of ANP | – |
| CC[C@H]([C@H]1CC[C@H](CC(=O)O)CC1)N(C)c1nc2c(c(N[C@@H](CN3CCC[C@H](C)C3)c3cnn(C)c3)n1)C[C@H](c1cccc(F)c1)CC2 [Compound 39, 2-((1R,4r)-4-((R)-1-(((R)-6-(3-fluorophenyl)-4-(((R)-1-(1-methyl-1H-pyrazol-4-yl)-2-((S)-3-methylpiperidin-1-yl)ethyl)amino)-5,6,7,8-tetrahydroquinazolin-2-yl)(methyl)amino)propyl)cyclohexyl)acetic acid] | 102 nM | 97.588 % of ANP | 162 nM | 100.189 % of ANP | – |
| CC[C@H]([C@H]1CC[C@H](C(=O)O)CC1)N(C)c1nc2c(c(N[C@@H](CN3CCC[C@H](C)C3)c3cnn(C)c3)n1)C[C@H](c1ccccc1)CC2 [Compound 40, (1R,4r)-4-((R)-1-(methyl((R)-4-(((R)-1-(1-methyl-1H-pyrazol-4-yl)-2-((S)-3-methylpiperidin-1-yl)ethyl)amino)-6-phenyl-5,6,7,8-tetrahydroquinazolin-2-yl)amino)propyl)cyclohexane-1-carboxylic acid] | 127 nM | 105.150 % of ANP | 166 nM | 102.476 % of ANP | – |
| CC[C@@H](N(C)c1nc2c(c(N[C@@H](CN3C4CCCC3CCC4)c3cnn(C)c3)n1)C[C@H](c1ccccc1F)CC2)C12CC(C(=O)O)(C1)C2 [Compound 41, 3-((R)-1-(((R)-4-(((R)-2-(9-azabicyclo[3.3.1]nonan-9-yl)-1-(1-methyl-1H-pyrazol-4-yl)ethyl)amino)-6-(2-fluorophenyl)-5,6,7,8-tetrahydroquinazolin-2-yl)(methyl)amino)propyl)bicyclo[1.1.1]pentane-1-carboxylic acid] | – | 92.494 % of ANP | 168 nM | 96.843 % of ANP | 144 nM |
| CC[C@@H](N(C)c1nc2c(c(N[C@@H](CN3C4CCCC3CC4)c3cnn(CC)c3)n1)C[C@H](c1cccc(F)c1)CC2)C12CC(C(=O)O)(C1)C2 [Compound 42, 3-((1R)-1-(((6R)-4-(((1R)-2-(8-azabicyclo[3.2.1]octan-8-yl)-1-(1-ethyl-1H-pyrazol-4-yl)ethyl)amino)-6-(3-fluorophenyl)-5,6,7,8-tetrahydroquinazolin-2-yl)(methyl)amino)propyl)bicyclo[1.1.1]pentane-1-carboxylic acid] | – | 101.138 % of ANP | 169 nM | 92.080 % of ANP | 146 nM |
| CC[C@H](N(C)c1nc2c(c(N[C@@H](CN3CCC[C@H](CF)C3)c3cnn(C)c3)n1)C[C@](C)(c1ccccc1)CC2)C12CC(C(=O)O)(C1)C2 [Compound 43, 3-((S)-1-(((R)-4-(((R)-2-((S)-3-(fluoromethyl)piperidin-1-yl)-1-(1-methyl-1H-pyrazol-4-yl)ethyl)amino)-6-methyl-6-phenyl-5,6,7,8-tetrahydroquinazolin-2-yl)(methyl)amino)propyl)bicyclo[1.1.1]pentane-1-carboxylic acid] | 158 nM | 104.036 % of ANP | 170 nM | 101.178 % of ANP | – |
| CC[C@@H](N(C)c1nc2c(c(N[C@@H](CN3CCC[C@H](C)C3)c3cnn(C)c3)n1)C[C@H](c1ccccc1)CC2)C12CC(C(=O)O)(C1)C2 [Compound 44, 3-((R)-1-(methyl((R)-4-(((R)-1-(1-methyl-1H-pyrazol-4-yl)-2-((S)-3-methylpiperidin-1-yl)ethyl)amino)-6-phenyl-5,6,7,8-tetrahydroquinazolin-2-yl)amino)propyl)bicyclo[1.1.1]pentane-1-carboxylic acid] | 102 nM | 107.199 % of ANP | 173 nM | 99.256 % of ANP | – |
| CC[C@@H](Nc1nc2c(c(N[C@@H](CN3CCCCC3)c3cnn(CC)c3)n1)C[C@H](c1ccccc1)CC2)[C@H]1CC[C@H](C(=O)O)CC1 [Compound 45, (1R,4r)-4-((R)-1-(((R)-4-(((R)-1-(1-ethyl-1H-pyrazol-4-yl)-2-(piperidin-1-yl)ethyl)amino)-6-phenyl-5,6,7,8-tetrahydroquinazolin-2-yl)amino)propyl)cyclohexane-1-carboxylic acid] | 125 nM | 99.911 % of ANP | 175 nM | 98.472 % of ANP | – |
| CC[C@@H](N(C)c1nc2c(c(N[C@@H](CN3CCC[C@H](C)C3)c3cnn(C)c3C)n1)C[C@H](c1cccc(F)c1)CC2)C12CC(C(=O)O)(C1)C2 [Compound 46] | 146 nM | 101.294 % of ANP | 179 nM | 93.728 % of ANP | – |
| C[C@H]1CCCN(C[C@H](Nc2nc(N(C)[C@H](C3CC3)[C@H]3CC[C@H](C(=O)O)CC3)nc3c2C[C@H](c2cccc(F)c2)CC3)c2cnn(C)c2)C1 [Compound 47, (1R,4r)-4-((R)-cyclopropyl(((R)-6-(3-fluorophenyl)-4-(((R)-1-(1-methyl-1H-pyrazol-4-yl)-2-((S)-3-methylpiperidin-1-yl)ethyl)amino)-5,6,7,8-tetrahydroquinazolin-2-yl)(methyl)amino)methyl)cyclohexane-1-carboxylic acid] | 97 nM | 96.550 % of ANP | 180 nM | 101.280 % of ANP | – |
| CC[C@H]([C@H]1CC[C@H](C(=O)O)CC1)N(C)c1nc2c(c(N[C@@H](CN3CCC[C@H](C)C3)c3cnn(C)c3)n1)C[C@H](c1ccccc1F)CC2 [Compound 48, (1R,4r)-4-((R)-1-(((R)-6-(2-fluorophenyl)-4-(((R)-1-(1-methyl-1H-pyrazol-4-yl)-2-((S)-3-methylpiperidin-1-yl)ethyl)amino)-5,6,7,8-tetrahydroquinazolin-2-yl)(methyl)amino)propyl)cyclohexane-1-carboxylic acid] | 101 nM | 101.062 % of ANP | 183 nM | 106.036 % of ANP | – |
